Values of other authors as cited in patent EP2561868A1 (Van Oosten, Anton Bernhard, priority 2011, dated 2013).
Entries after “also recorded” stand apart in the source; their conditions may differ.

Tests used:
[1] = not given; remark: listed apart in the source
[2] = system: serum immunoglobulin; details: patient Z
[3] = system: bone marrow plasma cell; details: patient Z
[4] = system: multiple myeloma and MGUS; details: patients with multiple myeloma and MGUS
[5] = target: human CYP3A4 (Homo sapiens, UniProt P08684)
human CYP3A4, sequence (P08684 whole entry): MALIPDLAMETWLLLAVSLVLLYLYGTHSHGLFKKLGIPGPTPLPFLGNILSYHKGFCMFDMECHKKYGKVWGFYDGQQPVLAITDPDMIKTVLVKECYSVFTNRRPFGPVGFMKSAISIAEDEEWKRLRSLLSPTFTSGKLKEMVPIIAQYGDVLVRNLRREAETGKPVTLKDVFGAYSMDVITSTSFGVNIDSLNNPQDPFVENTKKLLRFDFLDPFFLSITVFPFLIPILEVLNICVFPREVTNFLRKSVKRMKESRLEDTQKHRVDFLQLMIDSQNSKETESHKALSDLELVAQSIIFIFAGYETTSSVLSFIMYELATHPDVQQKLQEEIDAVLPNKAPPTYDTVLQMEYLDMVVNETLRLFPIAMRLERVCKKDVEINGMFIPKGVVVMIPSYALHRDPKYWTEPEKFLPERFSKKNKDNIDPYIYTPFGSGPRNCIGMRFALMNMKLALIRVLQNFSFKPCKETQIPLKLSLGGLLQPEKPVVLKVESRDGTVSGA

[6] = target: P-glycoprotein (Homo sapiens, UniProt P08183)
P-glycoprotein, sequence (P08183 whole entry): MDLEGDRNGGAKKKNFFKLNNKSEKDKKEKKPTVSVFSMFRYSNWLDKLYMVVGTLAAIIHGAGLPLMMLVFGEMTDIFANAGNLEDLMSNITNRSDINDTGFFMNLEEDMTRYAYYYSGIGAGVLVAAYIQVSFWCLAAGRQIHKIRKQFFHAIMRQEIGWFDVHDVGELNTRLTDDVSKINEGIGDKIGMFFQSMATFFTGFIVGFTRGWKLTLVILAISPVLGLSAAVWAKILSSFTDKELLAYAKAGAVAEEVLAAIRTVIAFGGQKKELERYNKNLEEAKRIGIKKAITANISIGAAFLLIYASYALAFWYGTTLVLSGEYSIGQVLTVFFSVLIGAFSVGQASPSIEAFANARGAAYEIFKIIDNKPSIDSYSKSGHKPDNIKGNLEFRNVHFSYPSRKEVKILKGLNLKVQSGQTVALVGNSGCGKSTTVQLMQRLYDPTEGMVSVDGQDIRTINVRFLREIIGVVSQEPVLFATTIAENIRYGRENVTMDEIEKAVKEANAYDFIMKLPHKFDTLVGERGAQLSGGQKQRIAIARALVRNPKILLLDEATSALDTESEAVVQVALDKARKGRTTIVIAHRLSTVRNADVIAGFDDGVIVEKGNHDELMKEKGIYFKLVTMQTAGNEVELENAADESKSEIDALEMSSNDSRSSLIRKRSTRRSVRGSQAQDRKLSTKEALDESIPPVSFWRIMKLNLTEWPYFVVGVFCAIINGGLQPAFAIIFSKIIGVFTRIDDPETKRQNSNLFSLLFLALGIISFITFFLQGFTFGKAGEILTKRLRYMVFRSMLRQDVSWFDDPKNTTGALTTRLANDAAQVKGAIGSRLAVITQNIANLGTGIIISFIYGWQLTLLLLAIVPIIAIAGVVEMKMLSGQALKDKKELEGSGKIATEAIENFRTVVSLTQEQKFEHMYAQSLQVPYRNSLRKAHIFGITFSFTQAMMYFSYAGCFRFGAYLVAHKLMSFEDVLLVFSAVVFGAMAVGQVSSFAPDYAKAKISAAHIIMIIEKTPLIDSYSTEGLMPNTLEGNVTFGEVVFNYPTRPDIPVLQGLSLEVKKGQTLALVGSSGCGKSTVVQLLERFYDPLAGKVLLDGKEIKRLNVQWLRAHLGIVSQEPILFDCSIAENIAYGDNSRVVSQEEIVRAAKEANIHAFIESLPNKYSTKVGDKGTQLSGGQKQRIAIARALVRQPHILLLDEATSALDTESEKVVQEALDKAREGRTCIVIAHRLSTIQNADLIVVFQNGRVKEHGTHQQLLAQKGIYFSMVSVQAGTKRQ

[7] = curcumin 8000 - 14,000 mg, no HCQ

CCN(CCO)CCCC(C)Nc1ccnc2cc(Cl)ccc12.O=S(=O)(O)O (centres unmarked) [Hydroxychloroquine, 2-[[4-[(7-Chloro-4-quinolyl)amino]pentyl]ethylamino] ethanol sulfate (1:1)]
risk of toxicity (after 5 to 7 years of use, or a cumulative dose of 1000 g): ~1%
dose considered safe (non-obese person (Marmor M et al., 2002)): 6.5 mg/kg/day
soluble in water [1]: at least 20%

O=C1CC[C@@]2(O)[C@H]3Cc4ccc(O)c5c4[C@@]2(CCN3CC2CC2)[C@H]1O5 [LDN]
IgG ([2]; serum, 12/26/07, LDN, diet): 30.0 g/L
M-IgG ([2]; serum, 12/26/07, LDN, diet): 20.5 g/L

COc1cc(/C=C/C(=O)CC(=O)/C=C/c2ccc(O)c(OC)c2)ccc1O [curcumin]
m-spike / M-IgG serum concentration, response to treatment [2, 7]: did not react to treatment
clinical benefit ([3]; 8000 mg to 14,000 mg daily, June 27 to December 26, 2007): without any clear benefit
BMPC values / progression [3, 7]: did not prevent progression or cause a downward evolution of the BMPC nor the m-spike; also recorded: No clear benefit
objective responses [4]: no objective responses

O=C(/C=C/C=C/c1ccc2c(c1)OCO2)N1CCCCC1 [piperine]
inhibition of human CYP3A4 [5]: inhibit
inhibition of P-glycoprotein [6]: inhibit
